Test results: PubChem BioAssay AID330 (DTP/NCI, 2004)
“And” between values parts separate entries of the source, which are not always exact repeats. Equal entries are not always repeated. Toxic doses and inconclusive results are not listed.

Test system: P388 leukemia ip, CD2F1 mice, survival T/C
Assay: NCI In Vivo Anticancer Drug Screen. Data for tumor model P388 Leukemia (intraperitoneal) in CD2F1 (CDF1) mice
Conditions: endpoint: median survival time, higher = longer survival
In short: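 Mice carrying the transplanted tumor received test compound or vehicle. Survival was recorded in each group, and the value is the treated-group measurement divided by that of the vehicle-treated control group.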

[1] = dose: 60.0 mg/kg/injection, schedule: Q01DX005 (ip), vehicle: saline with Tween-80
[2] = dose: 120.0 mg/kg/injection, schedule: Q01DX005 (ip), vehicle: saline with Tween-80
[3] = dose: 240.0 mg/kg/injection, schedule: Q01DX005 (ip), vehicle: saline with Tween-80
[4] = dose: 50.0 mg/kg/injection, schedule: Q01DX005 (ip), vehicle: saline with Tween-80
[5] = dose: 100.0 mg/kg/injection, schedule: Q01DX005 (ip), vehicle: saline with Tween-80
[6] = dose: 200.0 mg/kg/injection, schedule: Q01DX005 (ip), vehicle: saline with Tween-80
[7] = dose: 50.0 mg/kg/injection, schedule: Q01DX005 (ip), vehicle: Klucel (hydroxypropylcellulose) (HPC)
[8] = dose: 100.0 mg/kg/injection, schedule: Q01DX005 (ip), vehicle: Klucel (hydroxypropylcellulose) (HPC)
[9] = dose: 200.0 mg/kg/injection, schedule: Q01DX005 (ip), vehicle: Klucel (hydroxypropylcellulose) (HPC)
[10] = dose: 25.0 mg/kg/injection, schedule: Q01DX009 (ip), vehicle: saline with Tween-80
[11] = dose: 50.0 mg/kg/injection, schedule: Q01DX009 (ip), vehicle: saline with Tween-80
[12] = dose: 200.0 mg/kg/injection, schedule: Q01DX009 (ip), vehicle: saline with Tween-80
[13] = dose: 50.0 mg/kg/injection, schedule: Q01DX009 (ip), vehicle: Klucel (hydroxypropylcellulose) (HPC)
[14] = dose: 100.0 mg/kg/injection, schedule: Q01DX009 (ip), vehicle: Klucel (hydroxypropylcellulose) (HPC)
[15] = dose: 200.0 mg/kg/injection, schedule: Q01DX009 (ip), vehicle: Klucel (hydroxypropylcellulose) (HPC)
[16] = dose: 100.0 mg/kg/injection, schedule: Q01DX009 (ip), vehicle: saline with Tween-80

With `COC1OC(CO)C2OC(C)(C)OC12` (stereo unspecified) the T/C (dose: 50.0 mg/kg/injection, schedule: Q01DX005 (ip), vehicle: suspension in saline) was 101 % of control, the T/C (dose: 100.0 mg/kg/injection, schedule: Q01DX005 (ip), vehicle: suspension in saline) was 106 % of control and the T/C (dose: 200.0 mg/kg/injection, schedule: Q01DX005 (ip), vehicle: suspension in saline) was 101 % of control.
With `Cc1nc2cc(C(=O)NC=O)c3n[nH]nc3c2n1C` the T/C (dose: 4.0 mg/kg/injection, schedule: Q01DX005 (ip), vehicle: DMSO) was 98 % of control, the T/C (dose: 8.0 mg/kg/injection, schedule: Q01DX005 (ip), vehicle: DMSO) was 103 % of control and the T/C (dose: 16.0 mg/kg/injection, schedule: Q01DX005 (ip), vehicle: DMSO) was 94 % of control. For the same molecule, the T/C (dose: 32.0 mg/kg/injection, schedule: Q01DX005 (ip), vehicle: DMSO) was 93 % of control.
For `CCc1c(N2CCOCC2)c(C#N)c2nc3ccccc3n2c1N1CCOCC1`, the T/C [1] was 99 % of control, the T/C [2] was 95 % of control and the T/C [3] was 98 % of control.
With `CN(C)NC=O` the T/C (dose: 60.0 mg/kg/injection, schedule: Q01DX005 (ip), vehicle: saline) was 102 % of control, the T/C (dose: 120.0 mg/kg/injection, schedule: Q01DX005 (ip), vehicle: saline) was 102 % of control and the T/C (dose: 240.0 mg/kg/injection, schedule: Q01DX005 (ip), vehicle: saline) was 114 % of control.
`COCCCOC(=O)NCCCCC(N)C(=O)O` (stereo unspecified) was tested, and the T/C (dose: 50.0 mg/kg/injection, schedule: Q01DX005 (ip), vehicle: saline) was 98 % of control, the T/C (dose: 100.0 mg/kg/injection, schedule: Q01DX005 (ip), vehicle: saline) was 106 % of control and the T/C (dose: 200.0 mg/kg/injection, schedule: Q01DX005 (ip), vehicle: saline) was 100 % of control.
In the case of `NC(CC(=O)O)CC(=O)O`, the T/C (dose: 25.0 mg/kg/injection, schedule: Q01DX005 (ip), vehicle: saline with Tween-80) is reported as 93 % of control, the T/C [4] is reported as 95 % of control and the T/C [5] is reported as 98 % of control. For the same molecule, the T/C [6] was 90 % of control and the T/C (dose: 400.0 mg/kg/injection, schedule: Q01DX005 (ip), vehicle: saline with Tween-80) was 89 % of control.
In the case of `CC(C)(C)c1cc(C(=O)O)c2c(c1)C(=O)OCS2`, the T/C (dose: 100.0 mg/kg/injection, schedule: Q04DX003 (ip), vehicle: Klucel (hydroxypropylcellulose) (HPC)) is reported as 99 % of control, the T/C (dose: 200.0 mg/kg/injection, schedule: Q04DX003 (ip), vehicle: Klucel (hydroxypropylcellulose) (HPC)) is reported as 91 % of control and the T/C (dose: 400.0 mg/kg/injection, schedule: Q04DX003 (ip), vehicle: Klucel (hydroxypropylcellulose) (HPC)) is reported as 97 % of control.
With `CC1CCn2c(nc3c2c(=O)n(C)c(=O)n3C)N1` (stereo unspecified) the T/C [1] was 102 % of control and 100 % of control, the T/C [2] was 93 % of control and 94 % of control and the T/C [3] was 93 % of control and 91 % of control.
`CCOC(=O)c1c(NC(=O)c2ccccc2)sc2c(=O)oc(-c3ccccc3)nc12` was tested, and the T/C [7] was 97 % of control, the T/C [8] was 90 % of control and the T/C [9] was 90 % of control.
For `CNC(=O)c1ccccc1CC1(O)c2ccccc2Oc2ccccc21`, the T/C [7] was 100 % of control, the T/C [8] was 99 % of control and the T/C [9] was 96 % of control.
With `CC[C@@]1(C(N)=O)CC2C=CC1C2` (stereo partly specified) the T/C [7] was 94 % of control, the T/C [8] was 90 % of control and the T/C [9] was 96 % of control.
With `O=C(O)C1=C(C=C(c2ccccc2)c2ccccc2)OCCC1` the T/C (dose: 12.5 mg/kg/injection, schedule: Q01DX009 (ip), vehicle: saline with Tween-80) was 92 % of control, the T/C [10] was 90 % of control and the T/C [11] was 91 % of control. For the same molecule, the T/C [12] was 97 % of control.
`CCC12Nc3ccc([N+](=O)[O-])cc3C(CC)(C1=O)C(c1ccccc1)=C2c1ccccc1` (stereo unspecified) was tested, and the T/C [13] was 113 % of control, the T/C [14] was 110 % of control and the T/C [15] was 112 % of control.
With `COC(=O)c1cc(=O)nc(NN)s1` the T/C [4] was 92 % of control and the T/C [5] was 90 % of control.
In the case of `CNC(=S)N/N=C(C)/C=C/c1ccc(OC)cc1`, the T/C (dose: 100.0 mg/kg/injection, schedule: Q04DX002 (ip), vehicle: Klucel (hydroxypropylcellulose) (HPC)) is reported as 104 % of control, the T/C (dose: 200.0 mg/kg/injection, schedule: Q04DX002 (ip), vehicle: Klucel (hydroxypropylcellulose) (HPC)) is reported as 100 % of control and the T/C (dose: 400.0 mg/kg/injection, schedule: Q04DX002 (ip), vehicle: Klucel (hydroxypropylcellulose) (HPC)) is reported as 91 % of control.
For `Cc1cccc(N2CCN(C(=O)/C(=C/c3ccccc3)NC(=O)c3ccccc3)CC2)c1`, the T/C [4] was 93 % of control and the T/C [5] was 89 % of control.
In the case of `COc1ccc(-n2c(-c3ccc(-n4c(C)nc5ccccc5c4=O)cc3)n[nH]c2=S)cc1`, the T/C (dose: 37.5 mg/kg/injection, schedule: Q01DX005 (ip), vehicle: Klucel (hydroxypropylcellulose) (HPC)) is reported as 102 % of control, the T/C (dose: 75.0 mg/kg/injection, schedule: Q01DX005 (ip), vehicle: Klucel (hydroxypropylcellulose) (HPC)) is reported as 105 % of control and the T/C (dose: 150.0 mg/kg/injection, schedule: Q01DX005 (ip), vehicle: Klucel (hydroxypropylcellulose) (HPC)) is reported as 104 % of control.
With `Cc1ccc(C(O)(C(F)(F)F)C(O)(c2ccc(C)cc2)C(F)(F)F)cc1` (stereo unspecified) the T/C [11] was 107 % of control and 100 % of control, the T/C [16] was 107 % of control and 104 % of control and the T/C [12] was 101 % of control and 105 % of control.
In the case of `O=C(NC(Cc1ccc([N+](=O)[O-])cc1)C(=O)O)c1ccccc1` (stereo unspecified), the T/C (dose: 25.0 mg/kg/injection, schedule: Q01DX009 (ip), vehicle: other) is reported as 104 % of control, the T/C (dose: 50.0 mg/kg/injection, schedule: Q01DX009 (ip), vehicle: other) is reported as 110 % of control and the T/C (dose: 100.0 mg/kg/injection, schedule: Q01DX009 (ip), vehicle: other) is reported as 104 % of control.
`COCCCN(Cc1cc(OC)c(OC)c(OC)c1)C(=S)Nc1cccc(Cl)c1` was tested, and the T/C (dose: 50.0 mg/kg/injection, schedule: Q01DX009 (ip), vehicle: saline) was 92 % of control, the T/C (dose: 100.0 mg/kg/injection, schedule: Q01DX009 (ip), vehicle: saline) was 90 % of control and the T/C (dose: 200.0 mg/kg/injection, schedule: Q01DX009 (ip), vehicle: saline) was 94 % of control.
`S=C1SCCCN1Cc1ccc(Cl)cc1` was tested, and the T/C [13] was 95 % of control, the T/C [14] was 104 % of control and the T/C [15] was 107 % of control.
`O=C(O)c1cc2c(Cl)cccc2[nH]1` was tested, and the T/C [10] was 90 % of control, the T/C [11] was 90 % of control and the T/C [16] was 90 % of control.
`CC(=O)Nc1nc(N)nc(N)n1` was tested, and the T/C [11] was 106 % of control, the T/C [16] was 103 % of control and the T/C [12] was 88 % of control.
With `CN(C)N(P(c1ccccc1)c1ccccc1)P(c1ccccc1)c1ccccc1` the T/C (dose: 100.0 mg/kg/injection, schedule: Q04DX003 (ip), vehicle: saline with Tween-80) was 93 % of control, the T/C (dose: 200.0 mg/kg/injection, schedule: Q04DX003 (ip), vehicle: saline with Tween-80) was 92 % of control and the T/C (dose: 400.0 mg/kg/injection, schedule: Q04DX003 (ip), vehicle: saline with Tween-80) was 94 % of control.
`O=C1OCC(c2ccccc2)(c2ccccc2)C(=O)N1O` was tested, and the T/C [4] was 98 % of control, the T/C [5] was 103 % of control and the T/C [6] was 91 % of control.
`COc1ccc(CCN(Cc2ccc([N+](=O)[O-])cc2)C(=O)c2ccccc2)c(C=O)c1OC` was tested, and the T/C (dose: 100.0 mg/kg/injection, schedule: Q01DX001 (ip), vehicle: saline + alcohol) was 95 % of control, the T/C (dose: 200.0 mg/kg/injection, schedule: Q01DX001 (ip), vehicle: saline + alcohol) was 97 % of control and the T/C (dose: 400.0 mg/kg/injection, schedule: Q01DX001 (ip), vehicle: saline + alcohol) was 89 % of control.
`ICC1Cc2ccccc2O1` (stereo unspecified) was tested, and the T/C [11] was 99 % of control, the T/C [16] was 101 % of control and the T/C [12] was 103 % of control.
`COP(=O)(O)OC.[Ti]` was tested, and the T/C (dose: 25.0 mg/kg/injection, schedule: Q01DX001 (ip), vehicle: saline with Tween-80) was 100 % of control, the T/C (dose: 50.0 mg/kg/injection, schedule: Q01DX001 (ip), vehicle: saline with Tween-80) was 100 % of control and the T/C (dose: 100.0 mg/kg/injection, schedule: Q01DX001 (ip), vehicle: saline with Tween-80) was 96 % of control.
In the case of `O=C(O)c1nn(-c2ccccc2)c2c1CS(=O)(=O)c1ccccc1-2`, the T/C (dose: 100.0 mg/kg/injection, schedule: Q04DX002 (ip), vehicle: saline with Tween-80) is reported as 100 % of control, the T/C (dose: 200.0 mg/kg/injection, schedule: Q04DX002 (ip), vehicle: saline with Tween-80) is reported as 106 % of control and the T/C (dose: 400.0 mg/kg/injection, schedule: Q04DX002 (ip), vehicle: saline with Tween-80) is reported as 104 % of control.
For `CC1CCC[N-]C1.CC1CCC[N-]C1.CC1CCC[N-]C1.CC1CCC[N-]C1.[Cl][Rh][Cl]` (stereo unspecified), the T/C (dose: 1.5 mg/kg/injection, schedule: Q01DX009 (ip), vehicle: saline) was 122 % of control and the T/C (dose: 6.0 mg/kg/injection, schedule: Q01DX009 (ip), vehicle: saline) was 152 % of control.
